Test results published in ChEMBL document CHEMBL5360655, “Design, Synthesis, and Biological Evaluation of Novel P2X7 Receptor Antagonists for the Treatment of Septic Acute Kidney Injury” (J Med Chem, 2023).
pIC50: −log10 of the molar value. Activity calls are given as the source filed them. The rule behind the calls is not given here.

What was measured:
[1] = Tmax in BALB/c mouse at 10 mg/kg, ip measured for 24 hrs by LC-MS/MS analysis; assay type: ADME, organism-based; conditions: in vivo
Mus musculus [2] = test: Reno-protective activity against CLP-induced acute kidney injury C57BL/6J mouse model assessed as decrease in GSDMD mRNA expression in kidney at 20 mg/kg, ip administered twice at 30 mins prior to CLP operation and 8 hrs post-CLP operation and measured at 16 hrs post-CLP operation by RT-qPCR analysis; assay type: functional, organism-based; conditions: time 16.5 hrs
Mus musculus [3] = test: Reno-protective activity against ip dosed LPS-induced acute kidney injury C57BL/6J mouse model assessed as decrease in serum […] level administered twice at 30 mins prior to LPS challenge and 8 hrs post-LPS challenge and measured at 16 hrs post-LPS challenge; assay type: functional; conditions: time 16.5 hrs, read-out: MED
[4] = Intrinsic clearance in mouse liver microsomes; assay type: ADME, Microsome; conditions: read-out: CLH
[5] = Toxicity in C57BL/6J mouse assessed as pathological changes in testes at 20 mg/kg, ip administered twice at 0 hrs and 8 hrs and measured after 16 hrs by Hematoxylin-Eosin staining based analysis; assay type: organism-based; conditions: in vivo
[6] = Toxicity in C57BL/6J mouse assessed as pathological changes in liver at 20 mg/kg, ip administered twice at 0 hrs and 8 hrs and measured after 16 hrs by Hematoxylin-Eosin staining based analysis; assay type: organism-based; conditions: in vivo
Cytochrome P450 2E1 = Cytochrome P450 2E1 (Homo sapiens, UniProt P05181); test: Inhibition of CYP2E1 in human liver microsomes using cholorzoxazone-as substrate upto 100 uM incubated for 10 mins in presence of NADPH by LC-MS/MS analysis; assay type: ADME, Microsome
[7] = Clearance in BALB/c mouse at 10 mg/kg, iv measured for 24 hrs by LC-MS/MS analysis; assay type: ADME, organism-based; conditions: in vivo
THP-1 [8] = test: Inhibition of ATP-induced apoptosis in human THP-1 cells at […] pretreated with compound for 3 hrs in presence of LPS followed by incubation with ATP for 1 hr by PI/Hoechst staining based fluorescence microscopic analysis; assay type: functional, cell-based; conditions: dose 2.5 µM, time 4.0 hrs
Mus musculus [9] = test: Reno-protective activity against CLP-induced acute kidney injury C57BL/6J mouse model assessed as decrease in tubular injury at 20 mg/kg, ip administered twice at 30 mins prior to CLP operation and 8 hrs post-CLP operation and measured at 16 hrs post-CLP operation by Hematoxylin-Eosin staining based analysis; assay type: functional, organism-based; conditions: time 16.5 hrs
Mus musculus [10] = test: Reno-protective activity against CLP-induced acute kidney injury C57BL/6J mouse model assessed as decrease in Casp1 gene expression in kidney at 20 mg/kg, ip administered twice at 30 mins prior to CLP operation and 8 hrs post-CLP operation and measured at 16 hrs post-CLP operation by RNA sequencing analysis; assay type: functional, organism-based; conditions: time 16.5 hrs
[11] = Clearance in BALB/c mouse at 10 mg/kg, po measured for 24 hrs by LC-MS/MS analysis; assay type: ADME, organism-based; conditions: in vivo
[12] = Tmax in BALB/c mouse at 10 mg/kg, iv measured for 24 hrs by LC-MS/MS analysis; assay type: ADME, organism-based; conditions: in vivo
[13] = Toxicity in C57BL/6J mouse assessed as pathological changes in lungs at 20 mg/kg, ip administered twice at 0 hrs and 8 hrs and measured after 16 hrs by Hematoxylin-Eosin staining based analysis; assay type: organism-based; conditions: in vivo
P2X purinoceptor 7 = target: T1, P2X purinoceptor 7 (Homo sapiens, UniProt Q99572); test: Antagonist activity at human P2X7 receptor expressed in HEK293 cells assessed as inhibition of ATP-induced receptor pore formation by propidium iodide dye uptake based fluorescence analysis; assay type: cell-based
T1 sequence (Q99572 whole entry): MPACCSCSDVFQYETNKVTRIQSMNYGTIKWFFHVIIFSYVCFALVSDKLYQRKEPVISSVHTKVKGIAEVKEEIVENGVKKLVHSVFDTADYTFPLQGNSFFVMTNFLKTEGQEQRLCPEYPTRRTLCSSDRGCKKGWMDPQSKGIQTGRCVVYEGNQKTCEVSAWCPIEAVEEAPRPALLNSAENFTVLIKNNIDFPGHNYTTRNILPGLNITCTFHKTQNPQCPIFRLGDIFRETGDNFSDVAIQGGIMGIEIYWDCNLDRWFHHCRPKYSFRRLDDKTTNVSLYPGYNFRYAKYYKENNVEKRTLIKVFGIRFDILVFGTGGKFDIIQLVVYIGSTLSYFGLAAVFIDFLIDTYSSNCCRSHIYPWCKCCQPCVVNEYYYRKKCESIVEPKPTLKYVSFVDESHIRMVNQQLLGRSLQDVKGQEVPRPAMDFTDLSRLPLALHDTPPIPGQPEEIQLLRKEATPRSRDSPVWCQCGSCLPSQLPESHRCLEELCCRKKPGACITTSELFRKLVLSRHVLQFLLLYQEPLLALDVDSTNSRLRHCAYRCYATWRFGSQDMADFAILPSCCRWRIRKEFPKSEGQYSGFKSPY

Mus musculus [14] = test: Reno-protective activity against CLP-induced acute kidney injury C57BL/6J mouse model assessed as decrease in Il17 gene expression in kidney at 20 mg/kg, ip administered twice at 30 mins prior to CLP operation and 8 hrs post-CLP operation and measured at 16 hrs post-CLP operation by RNA sequencing analysis; assay type: functional, organism-based; conditions: time 16.5 hrs
THP-1 [15] = test: Cytotoxicity against human THP-1 cells assessed as effect on cell viability at 1 to 4 uM incubated for 2 hrs by CCK8 assay; assay type: toxicity, cell-based; conditions: thp-1, 2 h, dose 1-4 µM
[16] = Toxicity in C57BL/6J mouse assessed as pathological changes in spleen at 20 mg/kg, ip administered twice at 0 hrs and 8 hrs and measured after 16 hrs by Hematoxylin-Eosin staining based analysis; assay type: organism-based; conditions: in vivo
[17] = Cmax in BALB/c mouse at 10 mg/kg, ip measured for 24 hrs by LC-MS/MS analysis; assay type: ADME, organism-based; design: dose 10 mg/kg, time 24 hrs, route ip; conditions: in vivo
[18] = Cmax in BALB/c mouse at 10 mg/kg, po measured for 24 hrs by LC-MS/MS analysis; assay type: ADME, organism-based; design: time 24 hrs, dose 10 mg/kg, route po; conditions: in vivo
[19] = Ratio of MTD in ip dosed C57BL/6J mouse to MED for reno-protective activity against ip dosed LPS-induced acute kidney injury C57BL/6J mouse model; assay type: ADME, organism-based; conditions: in vivo
Mus musculus [20] = test: Reno-protective activity against CLP-induced acute kidney injury C57BL/6J mouse model assessed as decrease in caspase-1 mRNA expression in kidney at 20 mg/kg, ip administered twice at 30 mins prior to CLP operation and 8 hrs post-CLP operation and measured at 16 hrs post-CLP operation by RT-qPCR analysis; assay type: functional, organism-based; conditions: time 16.5 hrs
[21] = Toxicity in C57BL/6J mouse assessed as animal's survival rate at 400 mg/kg, ip measured for 14 days; assay type: organism-based; conditions: in vivo, time 14 day
Mus musculus [22] = test: Reno-protective activity against CLP-induced acute kidney injury C57BL/6J mouse model assessed as decrease in Il1b gene expression in kidney at 20 mg/kg, ip administered twice at 30 mins prior to CLP operation and 8 hrs post-CLP operation and measured at 16 hrs post-CLP operation by RNA sequencing analysis; assay type: functional, organism-based; conditions: time 16.5 hrs
THP-1 [23] = test: Inhibition of ATP-induced ROS production in human THP-1 cells at […] pretreated with LPS for 3 hrs followed by incubation with compound for 40 mins followed by treatment with ATP for 1 hr by DCFH-DA staining based fluorescence microscopic analysis; assay type: functional, cell-based; conditions: dose 2.5 µM, time 100.0 min
[24] = Cmax in BALB/c mouse at 10 mg/kg, iv measured for 24 hrs by LC-MS/MS analysis; assay type: ADME, organism-based; design: time 24 hrs, dose 10 mg/kg, route iv; conditions: in vivo

Cytochrome P450 2E1, sequence (P05181 whole entry): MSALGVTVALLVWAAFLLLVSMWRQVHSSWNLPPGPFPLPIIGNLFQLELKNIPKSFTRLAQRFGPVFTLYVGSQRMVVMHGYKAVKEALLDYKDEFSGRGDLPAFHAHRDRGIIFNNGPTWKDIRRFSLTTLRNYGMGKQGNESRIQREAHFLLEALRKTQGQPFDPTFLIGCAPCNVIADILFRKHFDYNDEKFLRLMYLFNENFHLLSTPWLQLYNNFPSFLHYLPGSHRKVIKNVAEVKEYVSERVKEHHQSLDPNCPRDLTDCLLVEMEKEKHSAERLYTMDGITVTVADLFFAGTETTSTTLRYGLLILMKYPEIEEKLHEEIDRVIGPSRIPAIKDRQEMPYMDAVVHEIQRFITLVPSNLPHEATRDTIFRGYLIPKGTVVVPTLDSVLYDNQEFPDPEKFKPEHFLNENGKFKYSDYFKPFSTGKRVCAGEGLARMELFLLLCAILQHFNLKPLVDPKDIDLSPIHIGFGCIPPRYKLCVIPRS

CS(=O)(=O)c1ccc(-c2nc(C(=O)NCc3cn(-c4cc(Br)ccn4)nn3)cs2)cc1
Tmax [1]: 3 h
Activity (Mus musculus [2]): Active
minimal effective dose (Mus musculus [3]): 5 mg/kg
CLint scaled [4]: < 12 mL/min/kg
Activity [5]: Non-Toxic
Activity [6]: Non-Toxic
inhibition (INH) (Cytochrome P450 2E1): Not Active
clearance [7]: 9.83 mL/min/kg
inhibition (THP-1 [8]): Active
Activity (Mus musculus [9]): Active
Activity (Mus musculus [10]): Active
CL/F [11]: 25.8 mL/min/kg
Tmax [12]: 0.19 h
Activity [13]: Non-Toxic
pIC50 (P2X purinoceptor 7): 7.19
Activity (Mus musculus [14]): Active
Activity (THP-1 [15]): Non-Toxic
Activity [16]: Non-Toxic
Cmax [17]: 1070 ng/mL
Cmax [18]: 1300 ng/mL
selectivity ratio [19]: 80
Activity (Mus musculus [20]): Active
survival at 336 h [21]: 100%
Activity (Mus musculus [22]): Active
inhibition (THP-1 [23]): Active
Cmax [24]: 4730 ng/mL
